Source: patent US8710083B2, “Pyridylphenyl compounds for inflammation and immune-related uses” (Synta Pharmaceuticals Corp., priority 2006, dated 2014)
Where a name gives a salt, the structure may show the parent alone.

Tested on: IL-2 production
Experiment: Inhibition of IL-2 production in PHA-activated Jurkat cells (ELISA)
Format: cell-based
Settings: PHA 2.5 μg/mL, IL-2 ELISA
Protocol: Jurkat cells were placed in a 96 well plate (0.5 million cells per well in 1% FBS medium) then a test compound of this invention was added at different concentrations. After 10 minutes, the cells were activated with PHA (final concentration 2.5 μg/mL) and incubated for 20 hours at 37° C. under CO2. The final volume was 200 μL. Following incubation, the cells were centrifuged and the supernatants collected and stored at −70° C. prior to assaying for IL-2 production. A commercial ELISA kit (IL-2 Eli-pair, Diaclone Research, Besancon, France) was used to detect production of IL-2, from which dose response curves were obtained. The IC50 value was calculated as the concentration at which 50% of maximum IL-2 production after stimulation was inhibited versus a non-stimulation control.

COC(=O)c1ccc(Cl)c(-c2ccc(NC(=O)c3c(F)cccc3F)nc2)c1 [Compound 6, 4-Chloro-3-[6-(2,6-difluoro-benzoylamino)-pyridin-3-yl]-benzoic acid methyl ester]
IC50 (Homo sapiens, Jurkat, 20 h): 6 nM

COC(=O)c1ccc(C)c(-c2ccc(NC(=O)c3c(F)cccc3F)nc2)c1 [Compound 7, 3-[6-(2,6-Difluoro-benzoylamino)-pyridin-3-yl]-4-methyl-benzoic acid methyl ester]
IC50 (Homo sapiens, Jurkat, 20 h): 4 nM

O=C(Nc1ccc(-c2cc(-c3ncco3)ccc2Cl)cn1)c1c(F)cccc1F [Compound 8, N-[5-(2-Chloro-5-oxazol-2-yl-phenyl)-pyridin-2-yl]-2,6-difluoro-benzamide]
IC50 (Homo sapiens, Jurkat, 20 h): 3 nM

O=C(Nc1ccc(-c2cc(-c3nccs3)ccc2Cl)cn1)c1c(F)cccc1F [Compound 10, N-[5-(2-Chloro-5-thiazol-2-yl-phenyl)-pyridin-2-yl]-2,6-difluoro-benzamide]
IC50 (Homo sapiens, Jurkat, 20 h): 2 nM

Cc1ccc(-c2ncco2)cc1-c1ccc(NC(=O)c2c(F)cccc2F)cn1 [Compound 13, 2,6-Difluoro-N-[6-(2-methyl-5-oxazol-2-yl-phenyl)-pyridin-3-yl]-benzamide]
IC50 (20 hours): 14 nM

Cc1cc(NC(=O)c2c(F)cccc2F)ncc1-c1cccc(C(F)(F)F)c1 [Compound 14, 2,6-Difluoro-N-[4-methyl-5-(3-trifluoromethyl-phenyl)-pyridin-2-yl]-benzamide]
IC50 (Homo sapiens, Jurkat, 20 h): 16 nM

Cc1nc(NC(=O)c2c(F)cccc2F)ccc1-c1cccc(C(F)(F)F)c1 [Compound 15, 2,6-Difluoro-N-[6-methyl-5-(3-trifluoromethyl-phenyl)-pyridin-2-yl]-benzamide]
IC50 (Homo sapiens, Jurkat, 20 h): 98 nM

Cc1nnsc1C(=O)Nc1ccc(-c2cc(C(F)(F)F)ccc2Cl)cn1 [Compound 16, 4-Methyl-[1,2,3]thiadiazole-5-carboxylic acid [5-(2-chloro-5-trifluoromethyl-phenyl)-pyridin-2-yl]-amide]
IC50 (Homo sapiens, Jurkat, 20 h): 15 nM

Cc1nnsc1C(=O)Nc1ccc(-c2cc(-c3nccs3)ccc2Cl)cn1 [Compound 17, 4-Methyl-[1,2,3]thiadiazole-5-carboxylic acid [5-(2-chloro-5-thiazol-2-yl-phenyl)-pyridin-2-yl]-amide]
IC50 (Homo sapiens, Jurkat, 20 h): 2 nM

Cc1ccc(-c2ncco2)cc1-c1ccc(NC(=O)c2snnc2C)nc1 [Compound 18, 4-Methyl-[1,2,3]thiadiazole-5-carboxylic acid [5-(2-methyl-5-oxazol-2-yl-phenyl)-pyridin-2-yl]-amide]
IC50 (Homo sapiens, Jurkat, 20 h): 12 nM

Cc1nnsc1C(=O)Nc1ccc(-c2cc(-c3ncco3)ccc2Cl)cn1 [Compound 19, 4-Methyl-[1,2,3]thiadiazole-5-carboxylic acid [5-(2-chloro-5-oxazol-2-yl-phenyl)-pyridin-2-yl]-amide]
IC50 (Homo sapiens, Jurkat, 20 h): 7 nM

Cc1ccc(-c2ncco2)cc1-c1ccc(NC(=O)c2c(F)cccc2F)cn1 [Compound 20, 2,6-Difluoro-N-[6-(2-methyl-5-oxazol-2-yl-phenyl)-pyridin-3-yl]-benzamide hydrochloride]
IC50 (Homo sapiens, Jurkat, 20 h): 12 nM

Cc1ccc(-c2cnco2)cc1-c1ccc(NC(=O)c2snnc2C)nc1 [Compound 21, 4-methyl-N-(5-(2-methyl-5-(oxazol-5-yl)phenyl)pyridin-2-yl)-1,2,3-thiadiazole-5-carboxamide]
IC50 (Homo sapiens, Jurkat, 20 h): 31 nM

COc1ccc(-c2cnco2)cc1-c1ccc(NC(=O)c2snnc2C)nc1 [Compound 67, N-(5-(2-methoxy-5-(oxazol-5-yl)phenyl)pyridin-2-yl)-4-methyl-1,2,3-thiadiazole-5-carboxamide]
IC50 (Homo sapiens, Jurkat, 20 h): 7 nM

Cc1ccc(-c2ccno2)cc1-c1ccc(NC(=O)c2snnc2C)nc1 [Compound 68, N-(5-(5-(isoxazol-5-yl)-2-methylphenyl)pyridin-2-yl)-4-methyl-1,2,3-thiadiazole-5-carboxamide]
IC50 (Homo sapiens, Jurkat, 20 h): 38 nM

Cc1ccc(-c2nnco2)cc1-c1ccc(NC(=O)c2c(F)cccc2F)nc1 [Compound 69, 2,6-difluoro-N-(5-(2-methyl-5-(1,3,4-oxadiazol-2-yl)phenyl)pyridin-2-yl)benzamide]
IC50 (Homo sapiens, Jurkat, 20 h): 73 nM

Cc1ccc(-c2cnco2)cc1-c1ccc(NC(=O)c2c(F)cccc2F)nc1 [Compound 70, 2,6-difluoro-N-(5-(2-methyl-5-(oxazol-5-yl)phenyl)pyridin-2-yl)benzamide]
IC50 (Homo sapiens, Jurkat, 20 h): 9 nM

O=C(Nc1ccc(-c2cc(-c3nnco3)ccc2Cl)cn1)c1c(F)cccc1F [Compound 71, N-(5-(2-chloro-5-(1,3,4-oxadiazol-2-yl)phenyl)pyridin-2-yl)-2,6-difluorobenzamide]
IC50 (Homo sapiens, Jurkat, 20 h): 17 nM

O=C(Nc1ccc(-c2cc(-c3nccs3)ccc2Cl)nc1)c1c(F)cccc1F [Compound 72, N-(6-(2-chloro-5-(thiazol-2-yl)phenyl)pyridin-3-yl)-2,6-difluorobenzamide]
IC50 (Homo sapiens, Jurkat, 20 h): 17 nM

Cc1ccc(-c2nccs2)cc1-c1ccc(NC(=O)c2c(F)cccc2F)cn1 [Compound 74, 2,6-Difluoro-N-(6-(2-methyl-5-(thiazol-2-yl)phenyl)pyridin-3-yl)benzamide]
IC50 (Homo sapiens, Jurkat, 20 h): 25 nM

Cc1ccc(-c2nnco2)cc1-c1ccc(NC(=O)c2c(F)cccc2F)cn1 [Compound 75, 2,6-Difluoro-N-(6-(2-methyl-5-(1,3,4-oxadiazol-2-yl)phenyl)pyridin-3-yl)benzamide]
IC50 (Homo sapiens, Jurkat, 20 h): 98 nM

O=C(Nc1ccc(-c2cc(-c3ncco3)ccc2Cl)nc1)c1c(F)cccc1F [Compound 76, N-(6-(2-chloro-5-(oxazol-2-yl)phenyl)pyridin-3-yl)-2,6-difluorobenzamide]
IC50 (Homo sapiens, Jurkat, 20 h): 9 nM

O=C(Nc1ccc(-c2cc(-c3ncco3)ccc2Cl)nc1)c1c(F)cccc1F [Compound 77, N-(6-(2-chloro-5-(oxazol-2-yl)phenyl)pyridin-3-yl)-2,6-difluorobenzamide hydrochloric acid salt]
IC50 (20 hours): 11 nM

Cc1ccc(-c2cnco2)cc1-c1ccc(NC(=O)c2c(F)cccc2F)cn1 [Compound 78, 2,6-Difluoro-N-(6-(2-methyl-5-(oxazol-5-yl)phenyl)pyridin-3-yl)benzamide]
IC50 (Homo sapiens, Jurkat, 20 h): 10 nM

Cc1ccc(-c2ncco2)cc1-c1ccc(NC(=O)c2ccc(Cl)cc2F)cn1 [Compound 80, 4-chloro-2-fluoro-N-(6-(2-methyl-5-(oxazol-2-yl)phenyl)pyridin-3-yl)benzamide]
IC50 (Homo sapiens, Jurkat, 20 h): 180 nM
